Source: PubChem BioAssay (NCI)
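GI50 is the concentration that inhibits growth by half. At the TGI there is no net growth.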

Assays:
Assay in all cases: NCI anticancer screen, dose series, 384-well format
786-0 renal = test system: 786-0 renal
A498 renal = test system: A498 renal
A549 NSCLC = test system: A549 NSCLC
ACHN renal = test system: ACHN renal
BT-549 breast = test system: BT-549 breast
CAKI-1 renal = test system: CAKI-1 renal
CCRF-CEM leukemia = test system: CCRF-CEM leukemia
COLO 205 colon = test system: COLO 205 colon
DU-145 prostate = test system: DU-145 prostate
EKVX NSCLC = test system: EKVX NSCLC
HCC-2998 colon = test system: HCC-2998 colon
HCT-116 colon = test system: HCT-116 colon
HCT-15 colon = test system: HCT-15 colon
HL-60(TB) leukemia = test system: HL-60(TB) leukemia
HOP-62 NSCLC = test system: HOP-62 NSCLC
HOP-92 NSCLC = test system: HOP-92 NSCLC
HS 578T breast = test system: HS 578T breast
HT29 colon = test system: HT29 colon
IGROV1 ovarian = test system: IGROV1 ovarian
K-562 leukemia = test system: K-562 leukemia
KM12 colon = test system: KM12 colon
LOX IMVI melanoma = test system: LOX IMVI melanoma
M14 melanoma = test system: M14 melanoma
MALME-3M melanoma = test system: MALME-3M melanoma
MCF7 breast = test system: MCF7 breast
MDA-MB-231 breast = test system: MDA-MB-231 breast
MDA-MB-435 melanoma = test system: MDA-MB-435 melanoma
MDA-MB-468 breast = test system: MDA-MB-468 breast
MOLT-4 leukemia = test system: MOLT-4 leukemia
NCI-H226 lung = test system: NCI-H226 lung
NCI-H23 lung = test system: NCI-H23 lung
NCI-H322M lung = test system: NCI-H322M lung
NCI-H460 NSCLC = test system: NCI-H460 NSCLC
NCI-H522 lung = test system: NCI-H522 lung
NCI/ADR-RES ovarian = test system: NCI/ADR-RES ovarian
OVCAR-3 ovarian = test system: OVCAR-3 ovarian
OVCAR-4 ovarian = test system: OVCAR-4 ovarian
OVCAR-5 ovarian = test system: OVCAR-5 ovarian
OVCAR-8 ovarian = test system: OVCAR-8 ovarian
PC-3 prostate = test system: PC-3 prostate
RPMI-8226 leukemia = test system: RPMI-8226 leukemia
RXF 393 renal = test system: RXF 393 renal
SF-268 CNS = test system: SF-268 CNS
SF-295 CNS = test system: SF-295 CNS
SF-539 CNS = test system: SF-539 CNS
SK-MEL-28 melanoma = test system: SK-MEL-28 melanoma
SK-MEL-5 melanoma = test system: SK-MEL-5 melanoma
SK-OV-3 ovarian = test system: SK-OV-3 ovarian
SN12C renal = test system: SN12C renal
SNB-19 CNS = test system: SNB-19 CNS
SNB-75 CNS = test system: SNB-75 CNS
SW-620 colon = test system: SW-620 colon
T-47D breast = test system: T-47D breast
TK-10 renal = test system: TK-10 renal
U251 glioblastoma = test system: U251 glioblastoma
UACC-257 melanoma = test system: UACC-257 melanoma
UACC-62 melanoma = test system: UACC-62 melanoma
UO-31 renal = test system: UO-31 renal

NC(=O)[C@@H](CCC(F)(F)F)N(Cc1ccc(-c2ncon2)cc1F)S(=O)(=O)c1ccc(Cl)cc1
GI50 ([…]-0 renal): 14.4 µM
TGI (786-0 renal): 27.6 µM
GI50 (A498 renal): 17.7 µM
TGI (A498 renal): 31.8 µM
GI50 (A549 NSCLC): 14.6 µM
TGI (A549 NSCLC): 28.1 µM
GI50 (ACHN renal): 16 µM
TGI (ACHN renal): 30 µM
GI50 (BT-549 breast): 17.2 µM
TGI (BT-549 breast): 32.2 µM
GI50 (CAKI-1 renal): 15.9 µM
TGI (CAKI-1 renal): 30.9 µM
GI50 (CCRF-CEM leukemia): 11.6 µM
TGI (CCRF-CEM leukemia): 23.8 µM
GI50 (COLO 205 colon): 15.5 µM
TGI (COLO 205 colon): 30.2 µM
GI50 (DU-145 prostate): 19 µM
TGI (DU-145 prostate): 36.4 µM
GI50 (EKVX NSCLC): 15.8 µM
TGI (EKVX NSCLC): 31.4 µM
GI50 (HCC-2998 colon): 3.09 µM
TGI (HCC-2998 colon): 12.6 µM
GI50 (HCT-116 colon): 15.2 µM
TGI (HCT-116 colon): 28.8 µM
GI50 (HCT-15 colon): 15.4 µM
TGI (HCT-15 colon): 29.9 µM
GI50 (HL-60(TB) leukemia): 14 µM
TGI (HL-60(TB) leukemia): 27.1 µM
GI50 (HOP-62 NSCLC): 14.7 µM
TGI (HOP-62 NSCLC): 28.1 µM
GI50 (HOP-92 NSCLC): 13.1 µM
TGI (HOP-92 NSCLC): 26.2 µM
GI50 (HS 578T breast): 12.6 µM
TGI (HS 578T breast): 25.2 µM
GI50 (HT29 colon): 14.2 µM
TGI (HT29 colon): 27.4 µM
GI50 (IGROV1 ovarian): 16.4 µM
TGI (IGROV1 ovarian): 30.5 µM
GI50 (K-562 leukemia): 13.5 µM
TGI (K-562 leukemia): 26.7 µM
GI50 (KM12 colon): 15 µM
TGI (KM12 colon): 28.7 µM
GI50 (LOX IMVI melanoma): 14.4 µM
TGI (LOX IMVI melanoma): 27.8 µM
GI50 (M14 melanoma): 12.5 µM
TGI (M14 melanoma): 25.1 µM
GI50 (MALME-3M melanoma): 13.4 µM
TGI (MALME-3M melanoma): 26.2 µM
GI50 (MCF7 breast): 14.5 µM
TGI (MCF7 breast): 28.3 µM
GI50 (MDA-MB-231 breast): 14.6 µM
TGI (MDA-MB-231 breast): 28.5 µM
GI50 (MDA-MB-435 melanoma): 13.5 µM
TGI (MDA-MB-435 melanoma): 26.8 µM
GI50 (MDA-MB-468 breast): 3.28 µM
TGI (MDA-MB-468 breast): 22.1 µM
GI50 (MOLT-4 leukemia): 5.98 µM
TGI (MOLT-4 leukemia): 19.8 µM
GI50 (NCI-H226 lung): 14.4 µM
TGI (NCI-H226 lung): 28.3 µM
GI50 (NCI-H23 lung): 14.6 µM
TGI (NCI-H23 lung): 28.6 µM
GI50 (NCI-H322M lung): 15 µM
TGI (NCI-H322M lung): 29.5 µM
GI50 (NCI-H460 NSCLC): 15.5 µM
TGI (NCI-H460 NSCLC): 29.2 µM
GI50 (NCI-H522 lung): 17.7 µM
TGI (NCI-H522 lung): 31.6 µM
GI50 (NCI/ADR-RES ovarian): 17.1 µM
TGI (NCI/ADR-RES ovarian): 32 µM
GI50 (OVCAR-3 ovarian): 15.6 µM
TGI (OVCAR-3 ovarian): 29.1 µM
GI50 (OVCAR-4 ovarian): 14.7 µM
TGI (OVCAR-4 ovarian): 28.1 µM
GI50 (OVCAR-5 ovarian): 17.7 µM
TGI (OVCAR-5 ovarian): 33.8 µM
GI50 (OVCAR-8 ovarian): 17.1 µM
TGI (OVCAR-8 ovarian): 31 µM
GI50 (PC-3 prostate): 12.7 µM
TGI (PC-3 prostate): 25.8 µM
GI50 (RPMI-8226 leukemia): 13.6 µM
TGI (RPMI-8226 leukemia): 26.6 µM
GI50 (RXF 393 renal): 11.7 µM
TGI (RXF 393 renal): 23.9 µM
GI50 (SF-268 CNS): 13 µM
TGI (SF-268 CNS): 25.8 µM
GI50 (SF-295 CNS): 17 µM
TGI (SF-295 CNS): 31 µM
GI50 (SF-539 CNS): 17.7 µM
TGI (SF-539 CNS): 31.7 µM
GI50 (SK-MEL-28 melanoma): 18.1 µM
TGI (SK-MEL-28 melanoma): 32.1 µM
GI50 (SK-MEL-5 melanoma): 12.9 µM
TGI (SK-MEL-5 melanoma): 25.8 µM
GI50 (SK-OV-3 ovarian): 17.5 µM
TGI (SK-OV-3 ovarian): 34.4 µM
GI50 (SN12C renal): 16.7 µM
TGI (SN12C renal): 30.5 µM
GI50 (SNB-19 CNS): 16.9 µM
TGI (SNB-19 CNS): 31.5 µM
GI50 (SNB-75 CNS): 14.1 µM
TGI (SNB-75 CNS): 28.1 µM
GI50 (SW-620 colon): 17.6 µM
TGI (SW-620 colon): 32.5 µM
GI50 (T-47D breast): 2.15 µM
TGI (T-47D breast): 10.5 µM
GI50 (TK-10 renal): 18.3 µM
TGI (TK-10 renal): 36.4 µM
GI50 (U251 glioblastoma): 17.3 µM
TGI (U251 glioblastoma): 31.1 µM
GI50 (UACC-257 melanoma): 14.1 µM
TGI (UACC-257 melanoma): 27.3 µM
GI50 (UACC-62 melanoma): 11.4 µM
TGI (UACC-62 melanoma): 23.6 µM
GI50 (UO-31 renal): 13 µM
TGI (UO-31 renal): 25.9 µM
